# Laboratory results reported in PMC12394658, “Discovery of Zharp1-163 as a dual inhibitor of ferroptosis and necroptosis for the treatment of inflammatory disorders and kidney injury” (Cell Death Discovery, 2025).
# What was measured:
# Assay in all cases: biochemical
# Design in all cases: Kinase selectivity panel of 81 human kinases, ADP-Glo or HTRF, per cent inhibition at 1 uM
# [1] = target: PLK2 (Homo sapiens, UniProt Q9NYY3)
# Protocol: (§1) We next sought to determine the binding affinity of Zharp1-163 for RIPK1 or RIPK3 via a binding assay (Fig. 4A). […] Further, we evaluated the selectivity of Zharp1-163 against a panel of 81 kinases (at 1000 nM). […] To elucidate the binding interactions between Zharp1-163 and RIPK1 kinase, we conducted molecular docking studies using the RIPK1 crystal structure (PDB ID: 4NEU). The predicted binding conformations and interaction patterns between Zharp1-163 and the RIPK1 kinase domain are presented in Fig. 4D, E. Like the cocrystallized ligand in the 4NEU crystal complex, Zharp1-163 was predicted to act as a typical type II kinase inhibitor, interacting with the DLG (Asp156-Leu157-Gly158)-out conformation of RIPK1 (Fig. 4D, E). The 2-aminoimidazo [1,2-a] pyridine moiety of Zharp1-163 formed hydrogen bonds with Met95 in the hinge region. Furthermore, the carboxylate group of Zharp1-163 established hydrogen bonds with Asp156 in the DLG-out region. Additionally, the saturated ring of Zharp1-163 was deeply embedded within the hydrophobic allosteric pocket formed by the residues Met66, Met67, Leu70, Val76, Leu129, and Leu159, which is created by the DLG-out conformation in RIPK1 (Fig. 4D, E).  Fig. 4 Zharp1-163 is a selective inhibitor of RIPK1 kinase activity. A Binding affinity curve of Zharp1-163 with RIPK1 and RIPK3. B In an in vitro kinase activity assay, recombinant RIPK1 was incubated with Zharp1-163, after which RIPK1 kinase activity was determined by measuring ATP levels via a luciferase reporter assay system. […] Kinases are marked with dots, where the color of each kinase indicates the level of inhibition achieved by Zharp1-163. D Predicted binding conformation of Zharp1-163. E Schematic representation of the interaction patterns between Zharp1-163 and the key residues in the binding pocket of the RIPK1 kinase. […] NIH3T3-RIPK3 cells were pretreated with the indicated concentrations of Zharp1-163 for 2 h and then treated with AP20187 (100 nM) for 24 h. Cell viability was determined by measuring ATP levels. […] HeLa-MLKL (1–190) cells were pretreated with the indicated concentrations of Zharp1-163 for 2 h and subsequently treated with AP20187 (100 nM) for 24 h. Cell viability was determined by measuring ATP levels. H Viability of IFNβ-primed MEFs at 18 h after stimulation with poly(I:C) plus z-VAD and treatment with Zharp1-163 (10 μM). I Effects of different concentrations of Zharp1-163 on WT or RIPK1 KO HT-29 cells. Cell viability was determined by measuring ATP levels. The data are presented as the mean ± SD of triplicate samples.
# [2] = target: T1, PKACα (Homo sapiens, UniProt P17612)
# T1 construct: gene PRKACA
# Protocol: as §1
# [3] = target: CDK18/CycY (Homo sapiens, UniProt Q07002)
# Protocol: as §1
# [4] = target: T2, CK2α1/β (Homo sapiens, UniProt P68400)
# T2 construct: gene CSNK2A1
# Protocol: as §1
# [5] = target: JAK3 (Homo sapiens, UniProt P52333)
# Protocol: as §1
# [6] = target: T3, IKKα (Homo sapiens, UniProt O15111)
# T3 construct: gene CHUK
# Protocol: as §1
# [7] = target: EPHB4 (Homo sapiens, UniProt P54760)
# Protocol: as §1
# [8] = target: T4, CHK2 (Homo sapiens, UniProt O96017)
# T4 construct: gene CHEK2
# Protocol: as §1
# [9] = target: LCK (Homo sapiens, UniProt P06239)
# Protocol: as §1
# [10] = target: FGFR1 (Homo sapiens, UniProt P11362)
# Protocol: as §1
# [11] = target: CLK1 (Homo sapiens, UniProt P49759)
# Protocol: as §1
# [12] = target: T5, DCAMKL2 (Homo sapiens, UniProt Q8N568)
# T5 construct: gene DCLK2
# Protocol: as §1
# [13] = target: ULK2 (Homo sapiens, UniProt Q8IYT8)
# Protocol: as §1
# [14] = target: MET (Homo sapiens, UniProt P08581)
# Protocol: as §1
# Sequence of FGFR1 (P11362 whole entry): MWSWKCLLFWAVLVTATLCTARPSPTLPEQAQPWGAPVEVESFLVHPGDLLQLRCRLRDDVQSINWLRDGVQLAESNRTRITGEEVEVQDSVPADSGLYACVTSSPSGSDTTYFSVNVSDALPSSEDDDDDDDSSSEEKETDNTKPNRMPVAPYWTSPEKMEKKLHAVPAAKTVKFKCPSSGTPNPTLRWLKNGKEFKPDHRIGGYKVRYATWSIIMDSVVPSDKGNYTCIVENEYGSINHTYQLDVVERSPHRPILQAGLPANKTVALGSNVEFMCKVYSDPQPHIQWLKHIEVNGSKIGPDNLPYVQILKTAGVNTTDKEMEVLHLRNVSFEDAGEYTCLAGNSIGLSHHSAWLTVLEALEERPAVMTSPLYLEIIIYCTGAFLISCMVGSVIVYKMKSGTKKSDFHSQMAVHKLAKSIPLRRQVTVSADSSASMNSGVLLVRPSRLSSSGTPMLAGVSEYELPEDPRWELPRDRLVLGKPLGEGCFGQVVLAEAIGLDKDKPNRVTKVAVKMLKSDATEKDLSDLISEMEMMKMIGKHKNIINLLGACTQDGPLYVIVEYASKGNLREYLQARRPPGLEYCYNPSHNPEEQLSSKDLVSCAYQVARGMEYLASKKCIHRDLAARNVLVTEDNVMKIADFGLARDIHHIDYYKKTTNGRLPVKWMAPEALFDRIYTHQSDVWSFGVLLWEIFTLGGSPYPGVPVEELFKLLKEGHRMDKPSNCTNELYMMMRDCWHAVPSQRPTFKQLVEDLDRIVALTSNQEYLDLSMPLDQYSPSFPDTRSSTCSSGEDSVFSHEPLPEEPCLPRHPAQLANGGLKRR
# Sequence of EPHB4 (P54760 whole entry): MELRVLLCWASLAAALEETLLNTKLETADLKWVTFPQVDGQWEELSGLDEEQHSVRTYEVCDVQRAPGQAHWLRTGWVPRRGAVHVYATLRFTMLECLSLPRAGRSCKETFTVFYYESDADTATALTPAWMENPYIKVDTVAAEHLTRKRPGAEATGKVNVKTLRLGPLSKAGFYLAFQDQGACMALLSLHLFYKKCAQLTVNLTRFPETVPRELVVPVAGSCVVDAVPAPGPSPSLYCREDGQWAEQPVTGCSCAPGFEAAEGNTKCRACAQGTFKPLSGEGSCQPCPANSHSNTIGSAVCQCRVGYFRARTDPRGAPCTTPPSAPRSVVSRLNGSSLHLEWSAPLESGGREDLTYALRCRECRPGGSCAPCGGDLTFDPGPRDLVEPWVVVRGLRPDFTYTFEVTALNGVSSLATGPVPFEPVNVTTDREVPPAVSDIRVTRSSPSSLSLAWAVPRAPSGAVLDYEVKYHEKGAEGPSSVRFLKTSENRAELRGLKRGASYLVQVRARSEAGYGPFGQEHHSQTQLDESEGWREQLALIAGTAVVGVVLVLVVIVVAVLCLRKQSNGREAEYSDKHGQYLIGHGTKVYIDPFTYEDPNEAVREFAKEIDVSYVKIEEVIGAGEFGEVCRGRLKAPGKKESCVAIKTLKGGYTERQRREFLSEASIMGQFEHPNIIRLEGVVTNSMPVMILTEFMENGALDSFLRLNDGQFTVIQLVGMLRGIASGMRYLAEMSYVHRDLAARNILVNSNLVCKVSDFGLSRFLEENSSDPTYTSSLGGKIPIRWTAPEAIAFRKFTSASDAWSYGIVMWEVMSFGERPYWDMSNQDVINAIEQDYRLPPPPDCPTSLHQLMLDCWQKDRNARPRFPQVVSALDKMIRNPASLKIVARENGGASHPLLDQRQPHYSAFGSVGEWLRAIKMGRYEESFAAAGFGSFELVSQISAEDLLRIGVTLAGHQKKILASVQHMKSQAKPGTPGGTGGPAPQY
# T5 sequence (Q8N568 whole entry): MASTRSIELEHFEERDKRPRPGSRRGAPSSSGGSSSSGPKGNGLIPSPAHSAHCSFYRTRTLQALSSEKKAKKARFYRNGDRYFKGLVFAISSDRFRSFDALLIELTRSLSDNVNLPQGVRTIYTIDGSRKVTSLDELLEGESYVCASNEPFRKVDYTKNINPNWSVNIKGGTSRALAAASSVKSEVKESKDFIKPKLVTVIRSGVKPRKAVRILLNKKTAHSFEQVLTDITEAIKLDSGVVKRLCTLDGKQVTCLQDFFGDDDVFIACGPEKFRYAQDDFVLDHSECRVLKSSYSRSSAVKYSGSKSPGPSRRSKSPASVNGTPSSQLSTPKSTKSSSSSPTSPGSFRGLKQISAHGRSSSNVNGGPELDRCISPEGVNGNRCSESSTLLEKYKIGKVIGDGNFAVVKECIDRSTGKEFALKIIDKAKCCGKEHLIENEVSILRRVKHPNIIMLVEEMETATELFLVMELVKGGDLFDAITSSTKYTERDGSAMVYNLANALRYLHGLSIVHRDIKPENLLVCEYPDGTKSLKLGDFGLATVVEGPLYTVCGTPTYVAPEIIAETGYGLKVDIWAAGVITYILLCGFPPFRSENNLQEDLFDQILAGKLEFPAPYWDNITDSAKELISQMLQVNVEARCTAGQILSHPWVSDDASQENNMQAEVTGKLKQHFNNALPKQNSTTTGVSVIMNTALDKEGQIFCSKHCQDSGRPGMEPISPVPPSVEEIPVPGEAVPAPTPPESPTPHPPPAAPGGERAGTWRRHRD
# T2 sequence (P68400 whole entry): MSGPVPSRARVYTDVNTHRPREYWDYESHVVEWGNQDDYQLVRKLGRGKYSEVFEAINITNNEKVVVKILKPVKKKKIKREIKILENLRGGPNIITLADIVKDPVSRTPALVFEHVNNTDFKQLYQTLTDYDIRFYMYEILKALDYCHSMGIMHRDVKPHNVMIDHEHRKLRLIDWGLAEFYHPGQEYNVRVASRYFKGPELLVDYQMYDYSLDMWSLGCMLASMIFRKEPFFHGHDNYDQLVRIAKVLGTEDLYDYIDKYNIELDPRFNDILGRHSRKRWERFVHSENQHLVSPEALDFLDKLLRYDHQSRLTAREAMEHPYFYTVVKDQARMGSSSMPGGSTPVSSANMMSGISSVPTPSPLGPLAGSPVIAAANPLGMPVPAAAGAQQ
# T2 sequence (P67870 whole entry partner): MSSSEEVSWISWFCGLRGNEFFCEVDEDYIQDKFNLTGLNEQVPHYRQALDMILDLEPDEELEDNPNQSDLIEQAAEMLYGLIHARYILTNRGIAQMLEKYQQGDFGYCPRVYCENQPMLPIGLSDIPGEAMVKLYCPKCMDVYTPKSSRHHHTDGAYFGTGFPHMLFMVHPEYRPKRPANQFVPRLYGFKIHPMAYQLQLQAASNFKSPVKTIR
# Sequence of CLK1 (P49759 whole entry): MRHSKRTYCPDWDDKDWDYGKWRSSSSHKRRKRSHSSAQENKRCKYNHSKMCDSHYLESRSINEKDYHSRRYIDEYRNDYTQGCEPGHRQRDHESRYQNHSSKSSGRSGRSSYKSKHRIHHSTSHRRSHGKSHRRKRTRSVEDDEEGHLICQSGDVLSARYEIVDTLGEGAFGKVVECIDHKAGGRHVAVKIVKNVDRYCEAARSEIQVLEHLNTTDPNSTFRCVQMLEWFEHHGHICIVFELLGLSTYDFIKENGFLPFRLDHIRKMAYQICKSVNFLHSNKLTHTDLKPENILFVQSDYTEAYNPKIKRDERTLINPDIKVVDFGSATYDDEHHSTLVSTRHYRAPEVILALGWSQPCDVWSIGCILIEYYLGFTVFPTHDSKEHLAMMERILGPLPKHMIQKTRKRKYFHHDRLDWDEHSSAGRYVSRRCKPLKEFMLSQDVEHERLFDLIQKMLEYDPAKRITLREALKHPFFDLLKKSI
# T4 sequence (O96017 whole entry): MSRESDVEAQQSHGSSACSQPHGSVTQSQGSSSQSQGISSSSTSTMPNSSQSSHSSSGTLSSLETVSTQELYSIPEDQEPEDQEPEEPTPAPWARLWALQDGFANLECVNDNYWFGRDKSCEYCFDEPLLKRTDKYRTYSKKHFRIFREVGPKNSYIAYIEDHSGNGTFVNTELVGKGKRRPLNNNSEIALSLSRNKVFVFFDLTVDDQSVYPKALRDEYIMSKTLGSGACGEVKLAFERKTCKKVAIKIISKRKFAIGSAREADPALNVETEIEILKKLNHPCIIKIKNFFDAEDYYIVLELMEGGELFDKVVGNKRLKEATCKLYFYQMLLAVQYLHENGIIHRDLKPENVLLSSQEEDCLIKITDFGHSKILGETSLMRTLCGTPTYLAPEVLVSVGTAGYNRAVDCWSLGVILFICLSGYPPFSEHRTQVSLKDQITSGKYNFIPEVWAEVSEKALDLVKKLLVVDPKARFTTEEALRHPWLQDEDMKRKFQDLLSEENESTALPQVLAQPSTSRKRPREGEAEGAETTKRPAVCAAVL
# T3 sequence (O15111 whole entry): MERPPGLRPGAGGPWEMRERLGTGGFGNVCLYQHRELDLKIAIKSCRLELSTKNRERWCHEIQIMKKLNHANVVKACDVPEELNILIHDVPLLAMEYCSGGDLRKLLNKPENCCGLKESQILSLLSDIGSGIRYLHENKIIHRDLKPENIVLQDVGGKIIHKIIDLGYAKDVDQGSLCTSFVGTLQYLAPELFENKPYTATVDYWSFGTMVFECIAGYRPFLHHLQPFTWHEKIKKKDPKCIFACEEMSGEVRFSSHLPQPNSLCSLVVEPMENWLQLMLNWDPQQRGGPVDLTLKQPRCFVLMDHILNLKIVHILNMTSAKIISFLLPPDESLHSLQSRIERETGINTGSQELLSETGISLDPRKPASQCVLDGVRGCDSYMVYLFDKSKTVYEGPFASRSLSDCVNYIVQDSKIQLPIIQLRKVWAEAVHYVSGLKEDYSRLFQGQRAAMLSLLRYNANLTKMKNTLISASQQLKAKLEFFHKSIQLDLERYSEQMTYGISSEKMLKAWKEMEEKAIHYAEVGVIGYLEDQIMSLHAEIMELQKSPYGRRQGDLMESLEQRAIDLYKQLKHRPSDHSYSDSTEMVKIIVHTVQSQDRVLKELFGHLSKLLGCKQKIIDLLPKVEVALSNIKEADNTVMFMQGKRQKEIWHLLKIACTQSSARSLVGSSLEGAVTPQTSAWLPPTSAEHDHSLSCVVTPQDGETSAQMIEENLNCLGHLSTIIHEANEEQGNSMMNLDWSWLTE
smiles,measurement,setting,value
Nc1cn2cc(-c3cnc4c(c3)N(C(=O)OC3CCCCC3)CCO4)ccc2n1 [Zharp1-163],inhibition at 1 µM,[1]; replicate Data1,-2.91%
same,inhibition at 1 µM,[1]; replicate Data2,-19.7%
same,inhibition at 1 µM,[2]; replicate Data1,-0.64%
same,inhibition at 1 µM,[2]; replicate Data2,3.94%
same,inhibition at 1 µM,[3]; replicate Data1,4.89%
same,inhibition at 1 µM,[3]; replicate Data2,-0.64%
same,inhibition at 1 µM,[4]; replicate Data1,-12.2%
same,inhibition at 1 µM,[4]; replicate Data2,5.04%
same,inhibition at 1 µM,[5]; replicate Data1,-1.37%
same,inhibition at 1 µM,[5]; replicate Data2,7.33%
same,inhibition at 1 µM,[6]; replicate Data1,0.19%
same,inhibition at 1 µM,[6]; replicate Data2,7.24%
same,inhibition at 1 µM,[7]; replicate Data1,1.63%
same,inhibition at 1 µM,[7]; replicate Data2,-4.43%
same,inhibition at 1 µM,[8]; replicate Data1,15.8%
same,inhibition at 1 µM,[8]; replicate Data2,1.85%
same,inhibition at 1 µM,[9]; replicate Data1,-16.9%
same,inhibition at 1 µM,[9]; replicate Data2,-10.8%
same,inhibition at 1 µM,[10]; replicate Data1,2.7%
same,inhibition at 1 µM,[10]; replicate Data2,-0.57%
same,inhibition at 1 µM,[11]; replicate Data1,38.1%
same,inhibition at 1 µM,[11]; replicate Data2,33.2%
same,inhibition at 1 µM,[12]; replicate Data1,5.19%
same,inhibition at 1 µM,[12]; replicate Data2,1.92%
same,inhibition at 1 µM,[13]; replicate Data1,-5.94%
same,inhibition at 1 µM,[13]; replicate Data2,-8.78%
same,inhibition at 1 µM,[14]; replicate Data1,18.3%
same,inhibition at 1 µM,[14]; replicate Data2,3.81%
